Test results reported in BindingDB's records for doi:10.1016/j.ejmech.2017.04.079 (Harvard Medical School, 2017).

Legend:
[1] = Inhibition of EML4/ALK (unknown origin) transfected in mouse BAF3 cells assessed as reduction in cell viability after 72 hrs by MTS assay
[2] = Inhibition of EGFR L858R mutant (unknown origin) transfected in mouse BAF3 cells assessed as reduction in cell viability after 72 hrs by MTS assay
[3] = Inhibition of EGFR T790M/L858R double mutant (unknown origin) transfected in mouse BAF3 cells assessed as reduction in cell viability after 72 hrs by MTS assay

| Structure (SMILES) | EC50 [1] [µM] | EC50 [2] [nM] | EC50 [3] [nM] |
| --- | --- | --- | --- |
| C=CC(=O)Nc1cccc(Oc2nc(Nc3ccc(N4CCN(C)CC4)cc3OC)ncc2Cl)c1 | 6.26 |  |  |
| CCC(=O)Nc1cc(Nc2ncc(Cl)c(Nc3ccccc3S(=O)(=O)C(C)C)n2)c(OC)cc1N(C)CCN(C)C |  | 666 | 972 |
| C=CC(=O)Nc1cc(Nc2nccc(Nc3ccccc3P(C)(C)=O)n2)c(OC)cc1N(C)CCN(C)C | > 5 |  |  |
| C=CC(=O)Nc1cc(Nc2nccc(-c3cn(C)c4ccccc34)n2)c(OC)cc1N(C)CCN(C)C [AZD-9291] | 1.75 |  |  |
